Values quoted from earlier work, collected in patent publication US20200016159A1, “N3-CYCLICALLY SUBSTITUTED THIENOURACILS AND USE THEREOF” (Bayer Aktiengesellschaft, priority 2016, published 2020).

Experiments:
[1] = test system: colon cancer cell lines; conditions: inhibition of the A2b receptor-mediated adenosine signalling pathway; cited from earlier work
[2] = test system: prostate cancer cell lines; conditions: cited from earlier work
[3] = test system: melanoma animal models; conditions: cited from earlier work

Row | Structure (SMILES) | growth of colon cancer cell lines [1] | growth of several prostate cancer cell lines [2] | tumour growth and metastasis [3]
1 | CCCn1c(=O)c2[nH]c(-c3ccc(OCC(=O)Nc4ccc(C#N)cc4)cc3)nc2n(CCC)c1=O [MRS1754] | reduced growth |  | 
2 | CCCn1c(=O)[nH]c2nc(-c3ccc(S(=O)(=O)N4CCN(c5ccc(Cl)cc5)CC4)cc3)[nH]c2c1=O [PSB603] |  | reduces the growth | reduction in tumour growth and metastasis
